# According to US20260272924A1, “ISOINDOLINE DERIVATIVE, BENZOINDOLE DERIVATIVE AND USE THEREOF” (SHANGHAI HELIOSON PHARMACEUTICAL CO., LTD., priority 2023, published 2026):
# Where two headings read alike, the source gives them in different places.
# Experiments:
# CRBN = target: T1, CRBN (Homo sapiens, UniProt Q96SW2); assay: CRBN binding assay (HTRF competition)
# T1 construct: purchased Cisbio 64BDCRBNPEG
# Text: Bonding activity between CRBN and compounds were detected by the HTRF competition assay using a CRBN binding kit (Cisbio, 64BDCRBNPEG). First, a reagent in the kit was equilibrated to room temperature and diluted to 1 fold with double-distilled water, and both the reagent and samples were uniformly mixed by thorough vortexing for later use. An europium-labeled specific GST antibody and an XL665-labeled thalidomide-red reagent (Cisbio, Cat No. 64BDCRBNPEG) were mixed in equal volumes in advance and then added into a 384-well white microplate at 10 μL per well. […] After uniform mixing, contents in the 384-well plate were sealed and incubated in the dark at room temperature for 3 hours.
# [1] = clinical phase I trial, combined with dexamethasone, RRMM patients; cited from earlier work
# IKZF1 = target: T2, IKZF1 (Homo sapiens, UniProt Q13422+Q96SW2); assay: Protein degradation assay (In-Cell Western), IKZF1; assay type: cell-based; conditions: NCI-H929 cells, 24 hours
# T2 construct: NCI-H929 cells were inoculated into a 96-well plate at 100,000 cells per well and cultured overnight; endogenous in cells; host or cells: NCI-H929
# Protocol: (§1) NCI-H929 cells were inoculated into a 96-well plate at 100,000 cells per well and cultured overnight. Compounds at concentrations of 1600 nM, 400 nM, 100 nM, 25 nM, 6.25 nM, 1.56 nM, 0.39 nM, and 0.1 nM were dosed with duplicate wells, and the cells were incubated in an incubator at 37° C. for 24 hours. After the incubation, the supernatant was removed by centrifugation, and 150 μL of 4% paraformaldehyde was added. The cells were incubated at room temperature for 20 minutes, then, 200 μL of a washing solution (0.1% TritonX-100, Beyotime; ST1722) was added and incubated at room temperature on a shaker. After repeating the washing four times, 150 μL of a Licor INTERCEPT blocking solution (Lico, Cat No. 927-70001) was added, and the cells were incubated on a shaker at room temperature for 1.5 hours. Antibodies IKZF1 (Cell Signaling; Cat No. 14859S), IKZF3 (Cell Signaling; Cat No. 15103S), GSPT1 (Proteintech, Cat No. 10763-1-AP), CK1a (Thermo; 7117067), and SALL4 (Abcam, ab22675) were diluted with an antibody dilution solution (Intercept Blocking Buffer, LI-COR, 211114) at 1:100 and 50 μL of each diluted primary antibody was added into the 96-well plate. The cells were incubated overnight on a shaker at 4° C. After the primary antibodies were removed and repeated washing was performed with PBST for 4 times, 50 μL of a diluted secondary antibody (Licor, Cat No. 926-68070) was added, and IRDye 800CW and IRDye 680CW were added at 0.5 μL simultaneously. The secondary antibody was sucked away, PBST was added, repeated washing was performed on a shaker at room temperature for 4 times, and a signal intensity was detected using an infrared laser imaging system (Lico, Odyssey-CLx).
# IKZF3 = target: T3, IKZF3 (Homo sapiens, UniProt Q96SW2+Q9UKT9); assay: Protein degradation assay (In-Cell Western), IKZF3; assay type: cell-based; conditions: NCI-H929 cells, 24 hours
# T3 construct: endogenous in cells; host or cells: NCI-H929
# Protocol: as §1
# [2] = tested on: NCI-H929 multiple myeloma cells; assay: Cell Titer-GLO (CTG) assay for proliferation of NCI-H929 cells; assay type: cell-based; conditions: Homo sapiens, 72 hours
# Method in brief: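 NCI-H929 cells, 5000/well, treated next day with compound from 0.00512 to 400 nM (5-fold steps, duplicates) for 72 h at 37° C. Viability by CellTiter-Glo luminescence, normalised to 0.1% DMSO and medium blank; IC50 and maximal inhibition from nonlinear dose-response regression.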
# [3] = patients, literature; cited from earlier work
# [4] = GST-labeled CRBN WT protein, thalidomide-red competition, 3 hours, read-out: HTRF CRBN IC50
Structure (SMILES),IC50 (CRBN; [4]),DC50 (IKZF1),Dmax (IKZF1),DC50 (IKZF3),Dmax (IKZF3),IC50 [2],IC50 (CRBN),objective response rate (ORR) [1],incidence rate of G3/G4 neutropenia [3]
"N#Cc1ccc(N2CCN(Cc3ccc(COc4cccc5c4CN([C@H]4CCC(=O)NC4=O)C5=O)cc3)CC2)c(F)c1 [CC-92480, reference compound]",–,–,–,–,–,–,108 nM,54.4%,–
"Cc1ncc(-c2nc(N3CCN(Cc4ccc(Cc5ccc6c7c(cccc57)C(=O)N6C5CCC(=O)NC5=O)cc4)CC3)cc(C(F)(F)F)n2)s1 (stereo not drawn) [Example 21, 3-(6-(4-((4-(2-(2-methylthiazol-5-yl)-6-(trifluoromethyl)pyrimidin-4-yl)piperazin-1-yl)methyl)benzyl)-2-oxobenzo[cd]indol-1(2H)-yl)piperidin-2,6-dione]",34 nM,8.86 nM,57.1%,0.22 nM,74.1%,0.2 nM,–,–,–
"Cc1nnc(-c2cccc(N3CCN(Cc4ccc(Cc5ccc6c7c(cccc57)C(=O)N6C5CCC(=O)NC5=O)cc4)CC3)n2)s1 (stereo not drawn) [Example 22, 3-(6-(4-((4-(6-(5-methyl-1,3,4-thiadiazol-2-yl)pyridin-2-yl)piperazin-1-vA)methyl)benzyl)-2-oxobenzo[cd]indol-1(2H)-yl)piperidin-2,6-dione]",20 nM,0.1 nM,65.3%,0.056 nM,76.4%,0.02 nM,–,–,–
"Cc1ncn(-c2cccc(N3CCN(Cc4ccc(Cc5ccc6c7c(cccc57)C(=O)N6C5CCC(=O)NC5=O)cc4)CC3)n2)n1 (stereo not drawn) [Example 23, 3-(6-(4-((4-(6-(3-methyl-1H-1,2,4-triazol-1-yl)pyridin-2-yl)piperazin-1-yl)methyl)benzyl)-2-oxobenzo[cd]indol-1(2H)-yl)piperidin-2,6-dione]",19 nM,0.077 nM,65.8%,0.036 nM,77.1%,0.01 nM,–,–,–
Nc1cccc2c1CN(C1CCC(=O)NC1=O)C2=O (stereo not drawn) [lenalidomide],–,–,–,–,–,–,–,–,up to 35%
Nc1cccc2c1C(=O)N(C1CCC(=O)NC1=O)C2=O (stereo not drawn) [pomalidomide],–,–,–,–,–,–,–,–,approximately 50%

# More lines, main results first:
IC50 (CRBN; [4]),DC50 (IKZF1),Dmax (IKZF1),DC50 (IKZF3),Dmax (IKZF3),IC50 [2],Structure (SMILES),IC50 (CRBN),objective response rate (ORR) [1],incidence rate of G3/G4 neutropenia [3]
38 nM,0.98 nM,60%,0.075 nM,76.2%,0.04 nM,"O=C1CCC(N2C(=O)c3cccc4c(Cc5ccc(CN6CCN(c7ccnc(-n8cnc(C(F)(F)F)c8)n7)CC6)cc5)ccc2c34)C(=O)N1 (stereo not drawn) [Example 25, 3-(2-oxo-6-(4-((4-(2-(4-(trifluoromethyl)-1H-imidazol-1-yl)pyrimidin-4-yl)piperazin-1-yl)methyl)benzyl)benzo[cd]indol-1(2H)-yl)piperidin-2,6-dione]",–,–,–
27 nM,0.37 nM,74.1%,0.093 nM,73.2%,0.01 nM,"Cc1nc(N2CCN(Cc3ccc(Cc4ccc5c6c(cccc46)C(=O)N5[C@H]4CCC(=O)NC4=O)cc3)CC2)cc(-n2cnc(C(F)(F)F)c2)n1 [Example 30, (S)-3-(6-(4-((4-(2-methyl-6-(4-(trifluoromethyl)-1H-imidazol-1-yl)pyrimidin-4-yl)piperazin-1-yl)methyl)benzyl)-2-oxobenzo[cd]indol-1(2H)-yl)piperidin-2,6-dione]",–,–,–
8 nM,–,–,–,–,0.01 nM,"Cc1ncn(-c2cccc(N3CCN(Cc4ccc(Cc5ccc6c7c(cccc57)C(=O)N6[C@H]5CCC(=O)NC5=O)cc4)CC3)n2)n1 [Example 37, (S)-3-(6-(4-((4-(6-(3-methyl-1H-1,2,4-triazol-1-yl)pyridin-2-yl)piperazin-1-yl)methyl)benzyl)-2-oxobenzo[cd]indol-1(2H)-yl)piperidin-2,6-dione]",–,–,–
